Test results as given in ChEMBL document CHEMBL1777668, “Structure-activity relationship of cyclic thiacarbocyanine tau aggregation inhibitors” (Bioorg Med Chem Lett, 2011).
Active and inactive are the calls of the source. The rule behind the calls is not given here.

Experiments:
Homo sapiens [1] = species: Homo sapiens; experiment: Inhibition of octadecyl sulfate-induced recombinant human tau 2N4R aggregation at 10 uM by electron microscopy
Homo sapiens [2] = species: Homo sapiens; experiment: Inhibition of octadecyl sulfate-induced recombinant human tau 2N4R aggregation at 1 uM by electron microscopy

inhibition (Homo sapiens [1]) | inhibition (Homo sapiens [2]) | Compound
Active |  | C1=C2\Sc3ccccc3N2CCCCCC[n+]2c(sc3ccccc32)/C=C/C=C2\Sc3ccccc3N2CCCCCC[n+]2c(sc3ccccc32)/C=C/1
Active |  | C1=C2\Sc3ccccc3N2CCCCCCC[n+]2c(sc3ccccc32)/C=C/C=C2\Sc3ccccc3N2CCCCCCC[n+]2c(sc3ccccc32)/C=C/1

The next lines start with the molecule.

Compound | inhibition (Homo sapiens [1]) | inhibition (Homo sapiens [2])
C1=C2\Sc3ccccc3N2CCCCC[n+]2c(sc3ccccc32)/C=C/C=C2\Sc3ccccc3N2CCCCC[n+]2c(sc3ccccc32)/C=C/1 | Active | 
C1=C2\Sc3ccccc3N2CCCCCCCC[n+]2c(sc3ccccc32)/C=C/C=C2\Sc3ccccc3N2CCCCCCCC[n+]2c(sc3ccccc32)/C=C/1 | Active | 
C1=C2\Sc3ccccc3N2CCCC[n+]2c(sc3ccccc32)/C=C/C=C2\Sc3ccccc3N2CCCC[n+]2c(sc3ccccc32)/C=C/1 | Active | Active
C1=C2\Sc3ccccc3N2CCC[n+]2c(sc3ccccc32)/C=C/C=C2\Sc3ccccc3N2CCC[n+]2c(sc3ccccc32)/C=C/1 | Active | inactive
